Values of other authors, collected in PMC5328943 (International journal of pharmaceutics, 2017).
≈ marks a conversion by molar mass, not a printed value.

Conditions: with TPGS; ref Yu et al., 1999

solubility in water: 720 µg/mL (≈ 1420 µM)
SMILES: CC(C)CN(C[C@@H](O)[C@H](Cc1ccccc1)NC(=O)O[C@H]1CCOC1)S(=O)(=O)c1ccc(N)cc1 [amprenavir]
